Measured values reported in patent US3988466A, “Prevention of gastric lesions” (priority 1973, dated 1976).

Legend:
[1] = test system: aspirin-induced gastric lesions in pylorus-ligated rats; test: Effect of L-glutamine on aspirin-induced gastric lesions in pylorus-ligated rats (Experiment 1); assay type: in vivo, male Donryu strain rats; settings: for Ulcer index / Inhibition: aspirin 100 mg/kg oral; for Ulcer index: 7 hours; for Inhibition: vs control ulcer index
Description: In this Experiment, 6 groups of male Donryu strain rats are used. The animals are fasted for 24 hours but water is allowed ad libitum. Under ether anesthesia, the pylorus is ligated according to the standard method of Shay et al. Five groups are treated with graded doses of L-glutamine suspended in 1% carboxymethylcellulose solution by oral administration immediately after the pylorus ligation. A sixth group (control) is treated with 5 ml/kg of 1% carboxymethylcellulose solution alone. […] After a 7-hour interval during which the animals are not allowed feed or water, the animals are killed by an overdose of ether. […] The stomach is removed and slightly inflated by injection of 1% formalin solution through the esophagel junction. […] The stomach is opened along the greater curvature and the length of lesions (dark blue areas against pale blue background) in the glandular portion is measured under a dissecting microscope (10x) provided with a square grid. […] The ulcer index expressed by mm indicates the mean value of the sum of the length of the lesions per animal of each group. The level of significance is calculated according to Student t-test.

[2] = test system: indomethacin-induced gastric lesions in pylorus-ligated rats; test: Effect of L-glutamine on indomethacin-induced gastric lesions in pylorus-ligated rats (Experiment 2); assay type: in vivo, male Donryu strain rats; settings: for Ulcer index / Inhibition: indomethacin 20 mg/kg i.p.; for Inhibition: vs control ulcer index
Description: In this Experiment, 8 groups of male Donryu strain rats are used. The animals are fasted for 24 hours but water is allowed ad libitum. Under ether anesthesia, the pylorus is ligated according to the standard method of Shay et al. Seven groups are treated with graded doses of L-glutamine suspended in 1% carboxymethylcellulose solution by oral administration immediately after the pylorus ligation. An eighth group (control) is treated with 5 ml/kg of 1% carboxymethylcellulose solution alone. Following a control period of 10 minutes, the animals are treated with 20 mg/kg of indomethacin suspended in a trace amount of Tween 80 (trade name of Atlas Chemical Industries Inc., U.S.A.) by intraperitoneal injection. Thereafter, the animals are treated in the same manner as described in Experiment 1 and the length of lesions is measured.

[3] = pH of amino acids in 1% carboxymethylcellulose solution; assay type: physicochemical; settings: 150 mg/ml in 1% carboxymethylcellulose solution
Description: The pH values of the amino acids are also determined. The amino acids are separately dissolved or suspended in 1% carboxymethylcellulose solution at a concentration of 150 mg/ml and the pH is measured on an Hitachi pH meter (product of Hitachi Ltd., Japan).

[4] = Effect of L-glutamine on absorption of aspirin in rats (plasma salicylate level; Experiment A); assay type: in vivo, male Wistar strain rats; settings: L-glutamine administered together with aspirin
Description: In this Experiment, 2 groups of male Wistar strain rats weighing about 280-320 g, each consisting of 12 animals are fixed in supine position. Under ether anesthesia, the carotid artery is cannulated for blood sampling. Upon recovery from the anesthesia, one group is treated with 1000 mg/kg of L-glutamine suspended in 1% carboxymethylcellulose solution and the other group (control) with 5 ml/kg of 1% carboxymethylcellulose solution alone, by oral administration. […] The same treatments are applied also to 2 groups of pylorus-ligated rats, each consisting of 5 animals.
The blood sample is centrifuged at 8,000 r.p.m. for 5 minutes and 20 μl of plasma is collected for the measurement of salicylate concentration. Salicylate concentration of plasma is determined according to the method of Lever & Powell [Lever, M. and Powell, J. C.: Biochem. Med., 7, 203 (1973)].

[5] = test system: yeast-induced fever in rats; test: Effect of L-glutamine on antipyretic activity of aspirin in rats (Experiment B); assay type: in vivo, male Wistar strain rats; settings: for Rectal temperature: L-glutamine 1000 mg/kg oral
Description: In this Experiment, male Wistar strain rats weighing about 90-100 g are treated with 2.5 ml/rat of a suspension of yeast (Brewers Yeast, product of Nutritional Biochem. Co., U.S.A.) in physiological saline (concentration: 250 mg/ml), by subcutaneous injection in the back, according to the method of Gleen et al [Gleen, E. M. et al: J. Pharma. Exp. Therp., 155, 157 (1967)]. The animals are then fasted. The animals showing an increased rectal temperature of 38° C or more after 17 hours are selected for use in experiment. […] As a control, one group is treated with 105 ml of 1% carboxymethylcellulose solution alone. After the treatment, the rectal temperature is measured at the time indicated.

[6] = test system: acetic acid-induced writhing response in mice; test: Effect of L-glutamine on analgesic activity of aspirin in mice (Experiment C); assay type: in vivo, male dd strain mice; settings: presence of L-glutamine
Description: In this Experiment, 3 groups of male dd strain mice weighing 19-21 g are used.
As a control, the third group is treated only with 1% carboxymethylcellulose solution. After a control period of one hour, the animals are treated with 0.2 ml of 0.7% acetic acid solution in physiological saline by intraperitoneal injection, according to the method of Koster et al. [Koster, R. et al: Fed. Proc., 18, 412 (1959)]. Starting 10 minutes after the administration of acetic acid, the number of writhing reaction occurred in 10 minutes is counted.

[7] = test system: carageenin-induced paw edema in rats; test: Effect of L-glutamine on anti-inflammatory activity of aspirin in rats (Experiment D); assay type: in vivo, male Donryu strain rats
Description: As a control, a sixth group is treated with 1% carboxymethylcellulose solution. After one hour, the animals are treated with a phlogistic agent of 0.1 ml of 1% carrageenin solution by subcutaneous injection in a hind paw, according to the method of Yamasaki et al. [Yamasaki, H. et al: Folia Pharm. Jap., 63, 302 (1967)]. Swelling of the paw is measured 5 hours after the administration of the phlogistic agent.

experimental ulcers = settings: induced by stress, pylorus ligation, histamine, reserpine or cortisone; cited from earlier work
[8] = L-glutamine 1000 mg/kg oral, 5 hours after phlogistic agent

SMILES: NC(=O)CC[C@H](N)C(=O)O [L-glutamine]
- Ulcer index ([1]; L-glutamine 62.5 mg/kg oral): 57.6±5.6 mm
- Inhibition ([1]; L-glutamine 62.5 mg/kg oral): -5.0%
- gastric lesions preventive effect ([1]; L-glutamine 62.5 mg/kg, aspirin 100 mg/kg): no such effect is observed
- Ulcer index ([1]; L-glutamine 125 mg/kg oral): 27.9±4.7 mm
- Inhibition ([1]; L-glutamine 125 mg/kg oral): 49.0%
- Ulcer index ([1]; L-glutamine 250 mg/kg oral): 15.0±3.4 mm
- Inhibition ([1]; L-glutamine 250 mg/kg oral): 72.6%
- Ulcer index ([1]; L-glutamine 500 mg/kg oral): 18.0±3.1 mm
- Inhibition ([1]; L-glutamine 500 mg/kg oral): 67.1%
- Ulcer index ([1]; L-glutamine 1,000 mg/kg oral): 3.5±1.5 mm
- Inhibition ([1]; L-glutamine 1,000 mg/kg oral): 93.6%
- animals with stomachs quite clear and no mucosal defect ([1]; L-glutamine 1000 mg/kg, aspirin 100 mg/kg): three out of 12
- effect on the prevention of indomethacin-induced gastric lesions ([2]; L-glutamine 15.6 mg/kg): no effect
- Ulcer index ([2]; L-glutamine 15.6 mg/kg oral): 12.1±3.5 mm
- Inhibition ([2]; L-glutamine 15.6 mg/kg oral): 3.2%
- inhibition of gastric lesions (in words) ([2]; L-glutamine 31.3 mg/kg): fairly inhibits the gastric lesions but the inhibition is not significant
- Ulcer index ([2]; L-glutamine 31.3 mg/kg oral): 5.0±1.1 mm
- Inhibition ([2]; L-glutamine 31.3 mg/kg oral): 60.0%
- prevention of indomethacin-induced gastric lesions ([2]; L-glutamine 62.5 mg/kg - 1000 mg/kg): effective for the prevention of indomethacin-induced gastric lesions
- Ulcer index ([2]; L-glutamine 62.5 mg/kg oral): 2.6±0.8 mm
- Inhibition ([2]; L-glutamine 62.5 mg/kg oral): 79.2%
- Ulcer index ([2]; L-glutamine 125 mg/kg oral): 3.9±1.5 mm
- Inhibition ([2]; L-glutamine 125 mg/kg oral): 68.8%
- Ulcer index ([2]; L-glutamine 250 mg/kg oral): 2.4±0.4 mm
- Inhibition ([2]; L-glutamine 250 mg/kg oral): 80.8%
- Ulcer index ([2]; L-glutamine 500 mg/kg oral): 1.6±0.7 mm
- Inhibition ([2]; L-glutamine 500 mg/kg oral): 87.2%
- Ulcer index ([2]; L-glutamine 1,000 mg/kg oral): 0.5±0.3 mm
- Inhibition ([2]; L-glutamine 1,000 mg/kg oral): 96.0%
- Amino acid pH [3]: 6.65
- effect on absorption of aspirin (in words) [4]: does not inhibit the absorption of aspirin
- Rectal temperature ([5]; 0 hour): 38.6±0.2 °C
- Rectal temperature ([5]; 1 hour): 38.5±0.2 °C
- Rectal temperature ([5]; 2 hours): 38.2±0.3 °C
- Rectal temperature ([5]; 4 hours): 38.1±0.4 °C
- Rectal temperature ([5]; 6 hours): 38.2±0.3 °C
- influence on antipyretic activity of aspirin ([5]; presence of L-glutamine): not substantially influenced
- influence on analgesic activity of aspirin [6]: not substantially influenced
- Suppression ratio [7, 8]: 5.4%
- Swelling ratio [7, 8]: 117.2±4.7%
- influence on anti-inflammatory activity of aspirin ([7]; presence of L-glutamine): not substantially influenced
- prevention or treatment of certain experimental ulcers (experimental ulcers): effective for the prevention or treatment of certain experimental ulcers
